Assay results taken from ChEMBL document CHEMBL4613299, “Optimization of Indazole-Based GSK-3 Inhibitors with Mitigated hERG Issue and In Vivo Activity in a Mood Disorder Model” (ACS Med Chem Lett, 2020).
Converted amounts (≈) assume the structure as drawn.

Legend:
[1] = Half life in CD mouse pooled liver microsomes at 10 uM incubated in shaking water bath measured up to 60 mins in presence of NADPH by HPLC-MS/MS analysis; type: ADME, Microsome
[2] = Half life in CD1 mouse at 10 mg/kg, ip measured up to 7 hrs by LC-MS/MS analysis; type: ADME, organism-based; conditions: in vivo
[3] = AUC (0 to infinity) in CD1 mouse at 10 mg/kg, ip measured up to 7 hrs by LC-MS/MS analysis; type: ADME, organism-based; design: dose 10 mg/kg, time infinity, route intraperitoneal; conditions: in vivo
[4] = Half life in human pooled liver microsomes at 10 uM incubated in shaking water bath measured up to 60 mins in presence of NADPH by HPLC-MS/MS analysis; type: ADME, Microsome
[5] = Cmax in plasma of CD1 mouse at 10 mg/kg, ip measured up to 7 hrs by LC-MS/MS analysis; type: ADME, organism-based; design: dose 10 mg/kg, route intraperitoneal
[6] = Tmax in CD1 mouse at 10 mg/kg, ip measured up to 7 hrs by LC-MS/MS analysis; type: ADME, organism-based; conditions: in vivo
[7] = Aqueous solubility of compound in PBS buffer at 200 uM and pH 7.4 incubated for 24 hrs under shaking condition by chromatographic analysis; type: physicochemical
[8] = Cmax in brain of CD1 mouse at 10 mg/kg, ip measured up to 7 hrs by LC-MS/MS analysis; type: ADME, organism-based; design: dose 10 mg/kg, route intraperitoneal
[9] = AUC (0 to t) in CD1 mouse at 10 mg/kg, ip measured up to 7 hrs by LC-MS/MS analysis; type: ADME, organism-based; design: time < 7 hr, dose 10 mg/kg, route intraperitoneal; conditions: in vivo

Compound: O=C(NCC1CCOCC1)c1n[nH]c2ccc(-c3cncc(CO)c3)cc12
- half-life at 10 µM [1]: > 1 h
- half-life [2]: 2 h
- AUC(0-inf) [3]: 791 ng·h/mL
- half-life at 10 µM [4]: > 1 h
- Cmax [5]: 949 ng/mL
- Tmax [6]: 0.5 h
- solubility at 24 h, 200 µM [7]: 200 µM (≈ 73.3 µg/mL)
- Cmax [8]: 21.1 ng/g
- AUC(0-t) at 7 h [9]: 781 ng·h/mL
